Literature values as cited in patent US20200147118A1, “COMPOSITIONS AND METHODS FOR DETECTION, RISK ASSESSMENT AND TREATMENT OF DIABETES, OBESITY, AND INFLAMMATION” (OTTAWA HEART INSTITUTE RESEARCH CORPORATION, priority 2018, published 2020).

Tested on: iNKTs
Details: obese mice, WT vehicle vs WT αGalCer, dataset GSE36032

CCCCCCCCCCCCCCCCCCCCCCCCCC(=O)N[C@@H](CO[C@H]1O[C@H](CO)[C@H](O)[C@H](O)[C@H]1O)[C@H](O)[C@H](O)CCCCCCCCCCCCCC [αGalCer]
E4bp4 expression in adipose tissue: increases | Ripk1 expression in adipose tissue: reduces
